Measurements: PubChem BioAssay AID1259411 (Chemical Carcinogenesis Research Information System (CCRIS), 2018)
Calls of active or inactive are those of the source. How the calls were made is not given here.

Tested on: rodent carcinogenicity bioassays, tumor incidence
Experiment: CCRIS carcinogenicity studies
Conditions: Dose: 0, Dose: 0
Method in brief: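 Archive of carcinogenicity, mutagenicity, tumor promotion and tumor inhibition results drawn from journals, NCI reports and other sources, expert-reviewed; covers 1985-2011 and is no longer updated.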

Measured: carcinogen call

Nc1ccn([C@H]2CC[C@@H](CO)O2)c(=O)n1
active: Species: MOUSE, Strain/Sex: B6C3F1/FEMALE, Route: GAVAGE, 500, 1000 MG/KG BW A DAY FOR 6 MO (STUDY DURATION: 6 MO), 500, 1000 MG/KG BW A DAY FOR 6 MO (STUDY DURATION: 6 MO), Tumor Site: Type of Lesion: THYMUS: LYMPHOMA active; positive | Species: MOUSE, Strain/Sex: B6C3F1/FEMALE, Route: GAVAGE, 500, 1000 MG/KG/D FOR 13 WK FOLLOWED BY 13 WK FOR RECOVERY (STUDY DURATION: 26 WK), 500, 1000 MG/KG/D FOR 13 WK FOLLOWED BY 13 WK FOR RECOVERY (STUDY DURATION: 26 WK), Tumor Site: Type of Lesion: THYMUS: LYMPHOMA active; positive | Species: MOUSE, Strain/Sex: B6C3F1/FEMALE, Route: GAVAGE, 1000 MG/KG BW A DAY FOR 3 MO FOLLOWED BY A 3-MO RECOVERY PERIOD (STUDY DURATION: 6 MO), Tumor Site: Type of Lesion: THYMUS: LYMPHOMA, SPLEEN: LYMPHOMA active; positive | Species: MOUSE, Strain/Sex: B6C3F1/MALE, Route: GAVAGE, 500, 1000 MG/KG BW A DAY FOR 6 MO (STUDY DURATION: 6 MO), 500, 1000 MG/KG BW A DAY FOR 6 MO (STUDY DURATION: 6 MO), Tumor Site: Type of Lesion: THYMUS: LYMPHOMA active; positive | Species: MOUSE, Strain/Sex: B6C3F1/MALE, Route: GAVAGE, 1000 MG/KG BW A DAY FOR 3 MO FOLLOWED BY A 3 MO RECOVERY PERIOD (STUDY DURATION: 6 MO), Tumor Site: Type of Lesion: THYMUS: LYMPHOMA active; positive | Species: MOUSE, Strain/Sex: NIH SWISS/FEMALE, Route: GAVAGE, 500, 1000 MG/KG BW A DAY FOR 6 MO (STUDY DURATION: 6 MO), 500, 1000 MG/KG BW A DAY FOR 6 MO (STUDY DURATION: 6 MO), Tumor Site: Type of Lesion: THYMUS: LYMPHOMA, SPLEEN: LYMPHOMA, LYMPH NODE: LYMPHOMA, Tumor Site: Type of Lesion: THYMUS: LYMPHOMA, SPLEEN: LYMPHOMA, LYMPH NODE: LYMPHOMA active; positive | Species: MOUSE, Strain/Sex: NIH SWISS/FEMALE, Route: GAVAGE, 1000 MG/KG BW A DAY FOR 3 MO FOLLOWED BY A 3-MO RECOVERY PERIOD (STUDY DURATION: 6 MO), Tumor Site: Type of Lesion: THYMUS: LYMPHOMA, SPLEEN: LYMPHOMA, LYMPH NODE: LYMPHOMA, Tumor Site: Type of Lesion: THYMUS: LYMPHOMA, SPLEEN: LYMPHOMA, LYMPH NODE: LYMPHOMA active; positive | Species: MOUSE, Strain/Sex: NIH SWISS/MALE, Route: GAVAGE, 500, 1000 MG/KG BW A DAY FOR 6 MO (STUDY DURATION: 6 MO), 500, 1000 MG/KG BW A DAY FOR 6 MO (STUDY DURATION: 6 MO), Tumor Site: Type of Lesion: THYMUS: LYMPHOMA active; positive | Species: MOUSE, Strain/Sex: NIH SWISS/MALE, Route: GAVAGE, 1000 MG/KG BW A DAY FOR 3 MO FOLLOWED BY A 3-MO RECOVERY PERIOD (STUDY DURATION: 6 MO), Tumor Site: Type of Lesion: THYMUS: LYMPHOMA active; positive
inactive: Species: MOUSE, Strain/Sex: B6C3F1/FEMALE, Route: GAVAGE, 500, 1000 MG/KG/D FOR 13 WK (STUDY DURATION: 13 WK), 500, 1000 MG/KG/D FOR 13 WK (STUDY DURATION: 13 WK) inactive; negative | Species: MOUSE, Strain/Sex: B6C3F1/FEMALE, Route: GAVAGE, 500, 1000 MG/KG/D FOR 13 WK FOLLOWED BY 4 WK OF RECOVERY (STUDY DURATION: 17 WK), 500, 1000 MG/KG/D FOR 13 WK FOLLOWED BY 4 WK OF RECOVERY (STUDY DURATION: 17 WK) inactive; negative | Species: MOUSE, Strain/Sex: B6C3F1/MALE, Route: GAVAGE, 500, 1000 MG/KG/D FOR 13 WK (STUDY DURATION: 13 WK), 500, 1000 MG/KG/D FOR 13 WK (STUDY DURATION: 13 WK) inactive; negative

NC(=O)N/N=C/c1ccc([N+](=O)[O-])o1
active: Species: MOUSE, Strain/Sex: B6C3F1/FEMALE, Route: ORAL, 150, 310 PPM IN DIET (STUDY DURATION: 2 YR), 150, 310 PPM IN DIET (STUDY DURATION: 2 YR), Tumor Site: Type of Lesion: OVARIES: GRANULOSA CELL TUMOR active; positive | Species: MOUSE, Strain/Sex: B6C3F1/FEMALE, Route: ORAL, 150, 310 PPM IN DIET FOR 103 WK (STUDY DURATION: 105 WK), 150, 310 PPM IN DIET FOR 103 WK (STUDY DURATION: 105 WK), Tumor Site: Type of Lesion: OVARY: GRANULOSA CELL TUMOR, OVARY: GRANULOSA CELL TUMOR OR LUTEOMA;OVARY: MIXED TUMOR,BENIGN, OVARY: TUBULAR CELL ADENO, Tumor Site: Type of Lesion: OVARY: GRANULOSA CELL TUMOR, OVARY: GRANULOSA CELL TUMOR OR LUTEOMA;OVARY: MIXED TUMOR,BENIGN, OVARY: TUBULAR CELL ADENO active; positive | Species: MOUSE, Strain/Sex: ICR/MALE, FEMALE, Route: SUBCUTANEOUS, 75 UG/G ONCE WITHIN 12 HR OF BIRTH AND ONCE ON DAYS 7,14 AND 21 OF AGE (STUDY DURATION: 32 WK), Tumor Site: Type of Lesion: LUNG: PAPILLARY ADENOMA active; positive | Species: RAT, Strain/Sex: F344/FEMALE, Route: ORAL, 310, 620 PPM IN DIET FOR 103 WK (STUDY DURATION: 105 WK), 310, 620 PPM IN DIET FOR 103 WK (STUDY DURATION: 105 WK), Tumor Site: Type of Lesion: MAMMARY GLAND: FIBROADENOMA active; positive | Species: RAT, Strain/Sex: F344 INBRED/FEMALE, Route: ORAL, 310, 620 PPM IN DIET (STUDY DURATION: 2 YR), 310, 620 PPM IN DIET (STUDY DURATION: 2 YR), Tumor Site: Type of Lesion: MAMMARY GLAND: FIBROADENOMA active; positive
equivocal: Species: RAT, Strain/Sex: F344/MALE, Route: ORAL, 310, 620 PPM IN DIET FOR 103 WK (STUDY DURATION: 105 WK), 310, 620 PPM IN DIET FOR 103 WK (STUDY DURATION: 105 WK), Tumor Site: Type of Lesion: SEBACEOUS GLAND: ADENOMA, SKIN: TRICHOEPITHELIOMA, TUNICA VAGINALIS: MESOTHELIOMA, PREPUTIAL GLAND: ADENOMA, CARCINOMA, Tumor Site: Type of Lesion: SEBACEOUS GLAND: ADENOMA, SKIN: TRICHOEPITHELIOMA, TUNICA VAGINALIS: MESOTHELIOMA, PREPUTIAL GLAND: ADENOMA, CARCINOMA
inactive: Species: MOUSE, Strain/Sex: B6C3F1/MALE, Route: ORAL, 150, 310 PPM IN DIET (STUDY DURATION: 2 YR), 150, 310 PPM IN DIET (STUDY DURATION: 2 YR) inactive; negative | Species: MOUSE, Strain/Sex: B6C3F1/MALE, Route: ORAL, 150, 310 PPM IN DIET FOR 103 WK (STUDY DURATION: 105 WK), 150, 310 PPM IN DIET FOR 103 WK (STUDY DURATION: 105 WK) inactive; negative | Species: MOUSE, Strain/Sex: ICR/MALE, FEMALE, Route: TRANSPLACENTAL, 75 UG/G ADMINISTERED SUBCUTANEOUSLY TO MOTHERS ON DAYS 13, 15 AND 17 OF GESTATION (STUDY DURATION: 33 WK) inactive; negative
